According to patent US9023789B2, “Amylin analogs and pharmaceutical compositions thereof” (Novo Nordisk A/S, priority 2012, dated 2015):
Like-named read-outs stand apart in the source and are kept apart here. Numbered stars: 1 amine (or outer) side, 2 acyl side, 3 side chain; on linkers, the order of the positions; unused ones are H or OH. Bridge positions count the residues as written; N and C are the ends. Peptide text beside a SMILES is read from it. * marks the point of attachment. C20 diacid = O=C(O)CCCCCCCCCCCCCCCCCCC(=O)*; γGlu = O=C(O)[C@H](CCC(=O)[*:2])N[*:1]

Tests used:
rat calcitonin receptor = biological target: T1, rat calcitonin receptor (Rattus norvegicus, UniProt P32214); experiment: ASSAY (VIII) binding to the rat calcitonin receptor; details: Table 7, read-out: rCTR bind IC50
T1 construct: expressed in transfected cells; host or cells: BHK tk'ts 13 (transient, FuGENE 6), membranes
T1 sequence (P32214 25-479 isoform P32214-2 limits assumed): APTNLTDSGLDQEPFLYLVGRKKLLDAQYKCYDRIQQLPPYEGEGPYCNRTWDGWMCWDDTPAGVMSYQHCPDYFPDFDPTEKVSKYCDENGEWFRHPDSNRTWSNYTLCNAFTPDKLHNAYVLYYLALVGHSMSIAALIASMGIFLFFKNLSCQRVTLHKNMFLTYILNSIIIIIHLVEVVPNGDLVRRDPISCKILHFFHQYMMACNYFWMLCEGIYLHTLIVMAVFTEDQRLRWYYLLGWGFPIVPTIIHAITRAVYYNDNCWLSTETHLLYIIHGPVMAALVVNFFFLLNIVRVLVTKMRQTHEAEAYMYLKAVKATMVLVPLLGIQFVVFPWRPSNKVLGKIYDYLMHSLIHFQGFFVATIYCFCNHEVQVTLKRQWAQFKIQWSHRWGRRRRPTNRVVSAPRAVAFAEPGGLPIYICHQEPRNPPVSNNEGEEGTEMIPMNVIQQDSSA
Experimental: Assay (VIII)—Determination of Binding to the Rat Calcitonin Receptor
The BHK tk′ts 13 cells were transiently transfected with rat calcitonin receptor using FuGENE® 6 (Roche), according to the manufacturer's recommendations. Cells were grown in DMEM with 10% FBS and 1% Pen/Strep. Approximately 48 hours after transfection, the cells were harvested and membranes were prepared.

[1] = ASSAY (IV) determination of solubility; format: physicochemical
Experimental: Assay (IV)—Determination of Solubility
The polypeptide was dissolved in water at −500 nmol/ml and mixed 1:1 with a series of buffers (100 mM glycylglycine pH 3.0, 100 mM glycylglycine pH 4.0, 100 mM glycylglycine pH 5.0, 100 mM bistrispropane pH 6.0, 100 mM bistrispropane pH 6.5, 100 mM bistrispropane pH 7.0, 100 mM bistrispropane pH 7.5, 100 mM bistrispropane pH 8.0). After 18 hours at room temperature the samples were centrifuged and the polypeptide concentration determined by UPLC.

[2] = biological target: T2, human amylin receptor (membranes from Amylin 3(a)/CRE-luc cells) (Homo sapiens, UniProt O60896+P30988); experiment: ASSAY (V) binding to the human amylin receptor (SPA, 125I-rat amylin);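 further: competition binding of cell membranes (35 ng/µL) mixed with SPA beads in 384-well plates at 40 µL total volume, read by scintillation counting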
T2 construct: expressed in transfected cells
T2 sequence (P30988 25-474): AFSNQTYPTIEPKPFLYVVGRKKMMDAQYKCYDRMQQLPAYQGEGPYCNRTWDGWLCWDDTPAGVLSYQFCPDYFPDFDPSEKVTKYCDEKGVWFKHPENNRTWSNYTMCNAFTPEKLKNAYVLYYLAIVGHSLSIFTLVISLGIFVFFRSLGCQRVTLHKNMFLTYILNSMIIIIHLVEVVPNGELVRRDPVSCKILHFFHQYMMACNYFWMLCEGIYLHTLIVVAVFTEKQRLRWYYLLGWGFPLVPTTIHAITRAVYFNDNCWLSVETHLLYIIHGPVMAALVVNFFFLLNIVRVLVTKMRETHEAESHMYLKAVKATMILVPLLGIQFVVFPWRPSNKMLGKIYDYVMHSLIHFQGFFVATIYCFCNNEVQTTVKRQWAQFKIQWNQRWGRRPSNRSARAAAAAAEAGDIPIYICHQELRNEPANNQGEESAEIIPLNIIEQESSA
T2 sequence (O60896 24-148 partner): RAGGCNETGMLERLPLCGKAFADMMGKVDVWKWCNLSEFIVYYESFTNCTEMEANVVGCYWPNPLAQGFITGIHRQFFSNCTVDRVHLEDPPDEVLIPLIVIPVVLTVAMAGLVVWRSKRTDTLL

[3] = ASSAY (III) ThT fibrillation assay for physical stability; format: physicochemical
Description: Assay (III)—ThT Fibrillation Assays for the Assessment of Physical Stability of Protein Formulations Low physical stability of a polypeptide may lead to amyloid fibril formation, which is observed as well-ordered, thread-like macromolecular structures in the sample eventually resulting in gel formation. This has traditionally been measured by visual inspection of the sample. However, that kind of measurement is very subjective and depending on the observer. Therefore, the application of a small molecule indicator probe is much more advantageous. Thioflavin T (ThT) is such a probe and has a distinct fluorescence signature when binding to fibrils [Naiki et al. (1989) Anal. […] LeVine (1999) Methods. Enzymol. […], 274-284]. The time course for fibril formation can be described by a sigmoidal curve with the following expression [Nielsen et al. (2001) Biochemistry 40, 6036-6046]; […] Here, F is the ThT fluorescence at the time t. The constant t0 is the time needed to reach 50% of maximum fluorescence. […] Few of those intermediates nucleate to form a template onto which further intermediates may assembly and the fibrillation proceeds. The lag-time corresponds to the interval in which the critical mass of nucleus is built up and the apparent rate constant is the rate with which the fibril itself is formed. Sample Preparation Samples were prepared freshly before each assay. Each sample composition is described in each example. The pH of the sample was adjusted to the desired value using appropriate amounts of concentrated NaOH and HClO4 or HCl. Thioflavin T was added to the samples from a stock solution in H2O to a final concentration of 1 μM. Sample aliquots of 200 μl were placed in a 96 well microtiter plate (Packard OptiPlate™96, white polystyrene). Usually, four or eight replica of each sample (corresponding to one test condition) were placed in one column of wells. The plate was sealed with Scotch Pad (Qiagen). Incubation and Fluorescence Measurement Incubation at given temperature, shaking and measurement of the ThT fluorescence emission were done in a Fluoroskan Ascent FL fluorescence platereader or Varioskan platereader (Thermo Labsystems). The temperature was adjusted to 37° C. The orbital shaking was adjusted to 960 rpm with an amplitude of 1 mm in all the presented data. Fluorescence measurement was done using excitation through a 444 nm filter and measurement of emission through a 485 nm filter. Each run was initiated by incubating the plate at the assay temperature for 10 min. The plate was measured every 20 minutes for a desired period of time. Between each measurement, the plate was shaken and heated as described. Data Handling The measurement points were saved in Microsoft Excel format for further processing and curve drawing and fitting was performed using GraphPad Prism. The background emission from ThT in the absence of fibrils was negligible. The data points are typically a mean of four or eight samples and shown with standard deviation error bars. Only data obtained in the same experiment (i.e. samples on the same plate) are presented in the same graph ensuring a relative measure of fibrillation between experiments. The data set may be fitted to Eq. […] However, since full sigmodial curves in this case are not always achieved during the measurement time, the degree of fibrillation is expressed as ThT fluorescence tabulated as the mean of the samples and shown with the standard deviation at various time points. Measurement of Initial and Final Concentrations The polypeptide concentration in each of the tested formulations were measured both before application in the ThT fibrillation assay (“Initial”) and after completion of the ThT fibrillation (“After ThT assay”). Concentrations were determined by reverse HPLC methods using a pramlintide standard as a reference. Before measurement after completion 150 μl was collected from each of the replica and transferred to an Eppendorf tube. These were centrifuged at 30000 G for 40 mins. […]

[4] = biological target: T3, human amylin 3(a) receptor (human calcitonin receptor + RAMP-3) in BHK570 cells (Homo sapiens, UniProt O60896+P30988); experiment: ASSAY (II)a functional assay, human amylin receptor (CRE luciferase); format: cell-based
T3 construct: expressed in transfected cells
Description: 1. Luciferase Assay Outline
Activation of calcitonin and amylin (coexpression of calcitonin receptor and receptor activity modifying proteins (RAMP)) receptors lead to increased intracellular concentrations of cAMP. Consequently, transcription is activated by promoters containing multiple copies of the cAMP response element (CRE). It is thus possible to measure amylin activity by the use of a CRE luciferase reporter gene introduced into BHK cells also expressing calcitonin or amylin receptors.
2. Construction of Calcitonin (a)- and Amylin 3(a)-Receptor/CRE-Luc Cell Line.
The cell line was further transfected with RAMP-3, using standard methods. This turns the calcitonin receptor into an amylin 3(a) receptor. Methotrexate, Neomycin, and Hygromycin are selection markers for luciferase, the calcitonin receptor, and RAMP-3, respectively.
To perform activity assays, BHK calcitonin (a) receptor- or amylin 3(a)-receptor/CRE-luc cells were seeded in white 96 well culture plates at a density of about 20.000 cells/well. […] After incubation overnight at 37° C. and 5% CO2, the growth medium was replaced by 50 μl/well assay medium (DMEM (without phenol red), Glutamax™, 10% FBS, and 10 mM Hepes, pH 7.4). Further, 50 μl/well of standard or sample in assay buffer were added. After 3 hours incubation at 37° C. and 5% CO2, the assay medium with standard or sample were removed and replaced by 100 μl/well PBS. Further, 100 μl/well LucLite™ was added. The plates were sealed and incubated at room temperature for 30 minutes. Finally, luminescence was measured on a TopCounter (Packard) in SPC (single photon counting) mode.

[5] = bistrispropane buffer, pH 6.5, read-out: Solubility pH 6.5 Concentration
[6] = bistrispropane buffer, pH 7.5, read-out: Solubility pH 7.5 Concentration
[7] = bistrispropane buffer, pH 6.0, read-out: Solubility pH 6.0 Concentration
[8] = bistrispropane buffer, pH 7.0, read-out: Solubility pH 7.0 Concentration
[9] = bistrispropane buffer, pH 8.0, read-out: Solubility pH 8.0 Concentration
[10] = glycylglycine buffer, pH 3.0, read-out: Solubility pH 3.0 Concentration
[11] = glycylglycine buffer, pH 4.0, read-out: Solubility pH 4.0 Concentration
[12] = glycylglycine buffer, pH 5.0, read-out: Solubility pH 5.0 Concentration

CC[C@H](C)[C@H](NC(=O)[C@H](C)NC(=O)CNC(=O)[C@H](Cc1ccccc1)NC(=O)[C@H](CC(N)=O)NC(=O)[C@@H]1CCCN1C(=O)[C@H](CO)NC(=O)[C@H](CO)NC(=O)[C@H](Cc1c[nH]cn1)NC(=O)[C@H](CCCNC(=N)N)NC(=O)[C@H](CC(C)C)NC(=O)[C@H](Cc1ccccc1)NC(=O)[C@H](CC(=O)O)NC(=O)[C@H](C)NC(=O)[C@H](CC(C)C)NC(=O)[C@H](CCCNC(=N)N)NC(=O)[C@H](CCC(N)=O)NC(=O)[C@@H](NC(=O)[C@H](C)NC(=O)[C@@H]1CSSC[C@H](NC(=O)[C@@H](N)CCCCN)C(=O)N[C@@H](CC(N)=O)C(=O)N[C@@H]([C@@H](C)O)C(=O)N[C@@H](C)C(=O)N[C@@H]([C@@H](C)O)C(=O)N1)[C@@H](C)O)C(=O)N1CCC[C@H]1C(=O)N[C@@H](CO)C(=O)N[C@@H](CO)C(=O)N[C@H](C(=O)N[C@@H](CC(N)=O)C(=O)N[C@H](C(=O)NCC(=O)N[C@@H](CO)C(=O)N[C@@H](CCCNC(=N)N)C(=O)N[C@H](C(=O)N[C@@H](Cc1ccc(O)cc1)C(N)=O)[C@@H](C)O)C(C)C)[C@@H](C)O [Example 132]
IC50 (rat calcitonin receptor): 30.9 nM | solubility at 18 h [1, 5]: ≥ 200 µM | solubility at 18 h [1, 6]: ≥ 200 µM | solubility at 18 h [1, 7]: ≥ 200 µM | solubility at 18 h [1, 8]: ≥ 200 µM | solubility at 18 h [1, 9]: ≥ 200 µM | solubility at 18 h [1, 10]: ≥ 200 µM | solubility at 18 h [1, 11]: ≥ 200 µM | solubility at 18 h [1, 12]: ≥ 200 µM

CC[C@H](C)[C@H](NC(=O)[C@H](C)NC(=O)CNC(=O)[C@H](Cc1ccccc1)NC(=O)[C@H](CC(N)=O)NC(=O)[C@@H]1CCCN1C(=O)[C@H](CO)NC(=O)[C@H](CO)NC(=O)[C@H](Cc1c[nH]cn1)NC(=O)[C@H](CCCNC(=N)N)NC(=O)[C@H](CC(C)C)NC(=O)[C@H](Cc1ccccc1)NC(=O)[C@H](CCC(=O)O)NC(=O)[C@H](C)NC(=O)[C@H](CC(C)C)NC(=O)[C@H](CCCNC(=N)N)NC(=O)[C@H](CCC(N)=O)NC(=O)[C@@H](NC(=O)[C@H](C)NC(=O)[C@@H]1CSSC[C@H](NC(=O)[C@H](CCCCN)NC(=O)CC[C@H](NC(=O)CC[C@H](NC(=O)CCCCCCCCCCCCCCCCCCC(=O)O)C(=O)O)C(=O)O)C(=O)N[C@@H](CC(N)=O)C(=O)N[C@@H]([C@@H](C)O)C(=O)N[C@@H](C)C(=O)N[C@@H]([C@@H](C)O)C(=O)N1)[C@@H](C)O)C(=O)N1CCC[C@H]1C(=O)N[C@@H](CO)C(=O)N[C@@H](CO)C(=O)N[C@H](C(=O)N[C@@H](CC(N)=O)C(=O)N[C@H](C(=O)NCC(=O)N[C@@H](CO)C(=O)N[C@@H](CC(N)=O)C(=O)N[C@H](C(=O)N1CCC[C@H]1C(N)=O)[C@@H](C)O)C(C)C)[C@@H](C)O [Example 14] ({C20 diacid-γGlu-γGlu}-KCNTATCATQRLAEFLRHSSPNFGAIPSSTNVGSNTP-NH2; disulfide 2-7)
Ratio hCT/hAmylin binding ([2]; Table 5, selectivity, hCTR bind IC50 / hAmylin-R bind IC50): 2.2 | Ratio hCT/hAmylin binding ([2]; Table 7, human binding selectivity, included for comparison): 2.2 | ThT pH 4.0 lag time (h) [3]: 45 h | Ratio hCT/hAmylin funct. ([4]; hCTR funct. EC50 / hAmylin-R funct. EC50): 1.6 | Ratio hCT/hAmylin funct. ([4]; hCTR funct. EC50 divided by hAmylin-R funct. EC50): 1.6 | Ratio hCT/hAmylin funct. ([4]; hCTR funct. EC50 over hAmylin-R funct. EC50): 1.6 | Ratio hCT/hAmylin funct. ([4]; human functional selectivity: hCTR funct. EC50 / hAmylin-R funct. EC50): 1.6 | solubility at 18 h [1, 5]: ≥ 200 µM | solubility at 18 h [1, 6]: ≥ 200 µM | solubility at 18 h [1, 7]: ≥ 200 µM | solubility at 18 h [1, 8]: ≥ 200 µM | solubility at 18 h [1, 9]: ≥ 200 µM | solubility at 18 h [1, 10]: ≥ 200 µM | solubility at 18 h [1, 11]: ≥ 200 µM | solubility at 18 h [1, 12]: ≥ 200 µM
